Experiments:
Assay in all cases: In vitro antibacterial activity, agar dilution MIC
Type in all cases: cell-based
Candida albicans CCH 442 = system: Candida albicans CCH 442; design: unit not given here; conditions: code TT, BHI agar, 35-37° C., 20 to 24 hours
Method: (§1) Representative compounds of the present invention were assayed in vitro for antibacterial activity as follows: Twelve petri dishes containing successive aqueous dilutions of the test compound mixed with 10 mL of sterilized Brain Heart Infusion (BHI) agar (Difco 0418-01-5) were prepared. Each plate was inoculated with 1:100 (or 1:10 for slow-growing strains, such as Micrococcus and Streptococcus) dilutions of up to 32 different microorganisms, using a Steers replicator block. The inoculated plates were incubated at 35-37° C. for 20 to 24 hours. In addition, a control plate, using BHI agar containing no test compound, was prepared and incubated at the beginning and end of each test.
(§2) An additional plate containing a compound having known susceptibility patterns for the organisms being tested and belonging to the same antibiotic class as the test compound was also prepared and incubated as a further control, as well as to provide test-to-test comparability.
(§3) After incubation, each plate was visually inspected. The minimum inhibitory concentration (MIC) was defined as the lowest concentration of drug yielding no growth, a slight haze, or sparsely isolated colonies on the inoculum spot as compared to the growth control.

[1] = system: Enterococcus faecium ATCC X043; design: unit not given here; conditions: code II, BHI agar, 35-37° C., 20 to 24 hours
Method: as §1, §2, §3

Escherichia coli DC-2 = system: Escherichia coli DC-2; design: unit not given here; conditions: code SS, BHI agar, 35-37° C., 20 to 24 hours
Method: as §1, §2, §3

Escherichia coli JUHL = system: Escherichia coli JUHL; design: unit not given here; conditions: code QQ, BHI agar, 35-37° C., 20 to 24 hours
Method: as §1, §2, §3

Escherichia coli SS = system: Escherichia coli SS; design: unit not given here; conditions: code RR, BHI agar, 35-37° C., 20 to 24 hours
Method: as §1, §2, §3

[2] = system: Micrococcus luteus ATCC 9341; design: unit not given here; conditions: code OO, BHI agar, 35-37° C., 20 to 24 hours
Method: as §1, §2, §3

[3] = system: Mycobacterium smegmatis ATCC 114; design: unit not given here; conditions: code UU, BHI agar, 35-37° C., 20 to 24 hours
Method: as §1, §2, §3

[4] = system: Nocardia Asteroides ATCC 99700; design: unit not given here; conditions: code VV, BHI agar, 35-37° C., 20 to 24 hours
Method: as §1, §2, §3

[5] = system: Staphylococcus aureus 1775; design: unit not given here; conditions: code GG, BHI agar, 35-37° C., 20 to 24 hours
Method: as §1, §2, §3

[6] = system: Staphylococcus aureus A-5177; design: unit not given here; conditions: code BB, BHI agar, 35-37° C., 20 to 24 hours
Method: as §1, §2, §3

[7] = system: Staphylococcus aureus A-5278; design: unit not given here; conditions: code CC, BHI agar, 35-37° C., 20 to 24 hours
Method: as §1, §2, §3

[8] = system: Staphylococcus aureus ATCC 6538P; design: unit not given here; conditions: code AA, BHI agar, 35-37° C., 20 to 24 hours
Method: as §1, §2, §3

[9] = system: Staphylococcus aureus CMX 553; design: unit not given here; conditions: code FF, BHI agar, 35-37° C., 20 to 24 hours
Method: as §1, §2, §3

[10] = system: Staphylococcus aureus CMX 642A; design: unit not given here; conditions: code DD, BHI agar, 35-37° C., 20 to 24 hours
Method: as §1, §2, §3

[11] = system: Staphylococcus aureus NCTC 10649M; design: unit not given here; conditions: code EE, BHI agar, 35-37° C., 20 to 24 hours
Method: as §1, §2, §3

[12] = system: Staphylococcus epidermidis 3519; design: unit not given here; conditions: code HH, BHI agar, 35-37° C., 20 to 24 hours
Method: as §1, §2, §3

[13] = system: Streptococcus agalactiae CMX 508; design: unit not given here; conditions: code KK, BHI agar, 35-37° C., 20 to 24 hours
Method: as §1, §2, §3

[14] = system: Streptococcus bovis A-5169; design: unit not given here; conditions: code JJ, BHI agar, 35-37° C., 20 to 24 hours
Method: as §1, §2, §3

[15] = system: Streptococcus pyogenes 930; design: unit not given here; conditions: code MM, BHI agar, 35-37° C., 20 to 24 hours
Method: as §1, §2, §3

[16] = system: Streptococcus pyogenes PIU 2548; design: unit not given here; conditions: code NN, BHI agar, 35-37° C., 20 to 24 hours
Method: as §1, §2, §3

[17] = system: Haemophilis Influenzae DILL AMP R; conditions: code WW, 35-37° C., 20 to 24 hours
Method: as §1, §2, §3

[18] = system: Micrococcus luteus ATCC 4698; conditions: code PP, BHI agar, 35-37° C., 20 to 24 hours
Method: as §1, §2, §3

[19] = system: Streptococcus Pneumonia 5649; conditions: code ZZA (code list: ZA), 35-37° C., 20 to 24 hours
Method: as §1, §2, §3

[20] = system: Streptococcus Pneumonia 5979; conditions: code ZZ, 35-37° C., 20 to 24 hours
Method: as §1, §2, §3

[21] = system: Streptococcus Pneumonia ATCC 6303; conditions: code XX, 35-37° C., 20 to 24 hours
Method: as §1, §2, §3

[22] = system: Streptococcus Pneumonia GYR 1171; conditions: code YY, 35-37° C., 20 to 24 hours
Method: as §1, §2, §3

[23] = system: Streptococcus pyogenes EES61; conditions: code LL, BHI agar, 35-37° C., 20 to 24 hours
Method: as §1, §2, §3

CCC1OC(=O)C(C)(O)C(=O)C(C)C(OC2OC(C)CC(N(C)C)C2O)C(C)(OCC=Cc2cnc3ccccc3c2)CC(C)C(=O)C(C)C2NC(=O)OC12C (stereo not drawn) [Example 8, Compound of formula (II): R^a is —CH2CH═CH—(3-quinolinyl), R^b is H, Y and Z together are O, T is —NH—, R is —OH,]
Antibacterial Activity (MIC) (Candida albicans CCH 442): >100 | Antibacterial Activity (MIC) [1]: 0.2 | Antibacterial Activity (MIC) (Escherichia coli DC-2): >100 | Antibacterial Activity (MIC) (Escherichia coli JUHL): >100 | Antibacterial Activity (MIC) (Escherichia coli SS): 0.2 | Antibacterial Activity (MIC) [2]: 0.02 | Antibacterial Activity (MIC) [3]: 3.1 | Antibacterial Activity (MIC) [4]: 0.39 | Antibacterial Activity (MIC) [5]: >100 | Antibacterial Activity (MIC) [6]: 0.39 | Antibacterial Activity (MIC) [7]: >100 | Antibacterial Activity (MIC) [8]: 0.39 | Antibacterial Activity (MIC) [9]: 0.78 | Antibacterial Activity (MIC) [10]: 0.39 | Antibacterial Activity (MIC) [11]: 0.78 | Antibacterial Activity (MIC) [12]: 0.39 | Antibacterial Activity (MIC) [13]: 0.01 | Antibacterial Activity (MIC) [14]: 0.02 | Antibacterial Activity (MIC) [15]: 50 | Antibacterial Activity (MIC) [16]: 0.39 | Antibacterial Activity (MIC) [17]: 16 | Antibacterial Activity (MIC) [18]: 0.2 | Antibacterial Activity (MIC) [19]: 0.5 | Antibacterial Activity (MIC) [20]: 128 | Antibacterial Activity (MIC) [21]: 0.03 | Antibacterial Activity (MIC) [22]: 0.03 | Antibacterial Activity (MIC) [23]: 0.02

CCC1OC(=O)C(C)(CC=Cc2ccccc2)C(=O)C(C)C(OC2OC(C)CC(N(C)C)C2O)C(C)(OC)CC(C)C(=O)C(C)C2NC(=O)OC12C (stereo not drawn) [Example 1, Compound of formula (II): R^a is CH3, R^b is H, Y and Z together are O, T is —NH—, R is —CH2CH═CH-(phenyl)]
Antibacterial Activity (MIC) (Candida albicans CCH 442): 100 | Antibacterial Activity (MIC) [1]: 25 | Antibacterial Activity (MIC) (Escherichia coli DC-2): >100 | Antibacterial Activity (MIC) (Escherichia coli JUHL): >100 | Antibacterial Activity (MIC) (Escherichia coli SS): 50 | Antibacterial Activity (MIC) [2]: 3.1 | Antibacterial Activity (MIC) [3]: 25 | Antibacterial Activity (MIC) [4]: 25 | Antibacterial Activity (MIC) [5]: 100 | Antibacterial Activity (MIC) [6]: 25 | Antibacterial Activity (MIC) [7]: 100 | Antibacterial Activity (MIC) [8]: 25 | Antibacterial Activity (MIC) [9]: 50 | Antibacterial Activity (MIC) [10]: 25 | Antibacterial Activity (MIC) [11]: 50 | Antibacterial Activity (MIC) [12]: 50 | Antibacterial Activity (MIC) [13]: 12.5 | Antibacterial Activity (MIC) [14]: 12.5 | Antibacterial Activity (MIC) [15]: 50 | Antibacterial Activity (MIC) [16]: 12.5 | Antibacterial Activity (MIC) [17]: >128 | Antibacterial Activity (MIC) [18]: 6.2 | Antibacterial Activity (MIC) [19]: 16 | Antibacterial Activity (MIC) [20]: 64 | Antibacterial Activity (MIC) [21]: 8 | Antibacterial Activity (MIC) [22]: 4 | Antibacterial Activity (MIC) [23]: 12.5

Compound of formula (II): R^a is CH3, R^b is H, Y and Z together are O, T is —N(W(R^g)-, W is —(CH2)p-, p is 4, R^g is phenyl, R is —OH [Example 2]
Antibacterial Activity (MIC) (Candida albicans CCH 442): 100 | Antibacterial Activity (MIC) [1]: 0.39 | Antibacterial Activity (MIC) (Escherichia coli DC-2): >100 | Antibacterial Activity (MIC) (Escherichia coli JUHL): >100 | Antibacterial Activity (MIC) (Escherichia coli SS): 6.2 | Antibacterial Activity (MIC) [2]: 0.39 | Antibacterial Activity (MIC) [3]: 3.1 | Antibacterial Activity (MIC) [4]: 3.1 | Antibacterial Activity (MIC) [5]: 100 | Antibacterial Activity (MIC) [6]: 1.56 | Antibacterial Activity (MIC) [7]: 100 | Antibacterial Activity (MIC) [8]: 1.56 | Antibacterial Activity (MIC) [9]: 1.56 | Antibacterial Activity (MIC) [10]: 3.1 | Antibacterial Activity (MIC) [11]: 1.56 | Antibacterial Activity (MIC) [12]: 3.1 | Antibacterial Activity (MIC) [13]: 0.2 | Antibacterial Activity (MIC) [14]: 0.2 | Antibacterial Activity (MIC) [15]: 25 | Antibacterial Activity (MIC) [16]: 0.39 | Antibacterial Activity (MIC) ([17]; unit assumed): 64 µg/mL | Antibacterial Activity (MIC) ([18]; unit assumed): 0.78 µg/mL | Antibacterial Activity (MIC) ([19]; unit assumed): 1 µg/mL | Antibacterial Activity (MIC) ([20]; unit assumed): 32 µg/mL | Antibacterial Activity (MIC) ([21]; unit assumed): 0.5 µg/mL | Antibacterial Activity (MIC) ([22]; unit assumed): 0.25 µg/mL | Antibacterial Activity (MIC) ([23]; unit assumed): 0.1 µg/mL

CCC1OC(=O)C(C)(O)C(=O)C(C)C(OC2OC(C)CC(N(C)C)C2O)C(C)(OCC(O)CO)CC(C)C(=O)C(C)C2NC(=O)OC12C (stereo not drawn) [Example 3, Compound of formula (II): R^a is —CH2CH(OH)CH2OH, R^b is H, Y and Z together are O, T is —NH—, R is —OH]
Antibacterial Activity (MIC) (Candida albicans CCH 442): >100 | Antibacterial Activity (MIC) [1]: 100 | Antibacterial Activity (MIC) (Escherichia coli DC-2): >100 | Antibacterial Activity (MIC) (Escherichia coli JUHL): >100 | Antibacterial Activity (MIC) (Escherichia coli SS): 100 | Antibacterial Activity (MIC) [2]: 50 | Antibacterial Activity (MIC) [3]: >100 | Antibacterial Activity (MIC) [4]: >100 | Antibacterial Activity (MIC) [5]: >100 | Antibacterial Activity (MIC) [6]: >100 | Antibacterial Activity (MIC) [7]: >100 | Antibacterial Activity (MIC) [8]: >100 | Antibacterial Activity (MIC) [9]: >100 | Antibacterial Activity (MIC) [10]: >100 | Antibacterial Activity (MIC) [11]: >100 | Antibacterial Activity (MIC) [12]: >100 | Antibacterial Activity (MIC) [13]: 50 | Antibacterial Activity (MIC) [14]: 50 | Antibacterial Activity (MIC) [15]: >100 | Antibacterial Activity (MIC) [16]: >100 | Antibacterial Activity (MIC) [17]: >128 | Antibacterial Activity (MIC) [18]: >100 | Antibacterial Activity (MIC) [19]: >128 | Antibacterial Activity (MIC) [20]: >128 | Antibacterial Activity (MIC) [21]: 64 | Antibacterial Activity (MIC) [22]: 32 | Antibacterial Activity (MIC) [23]: 100

Reference: patent publication US20020193320A1, “C-2 modified erythromycin derivatives” (priority 1999, published 2002)
